Data set [1] relates to RANKL mRNA. The experiment in a line: Antisense inhibition of RANKL mRNA expression followed by PTH treatment in primary mouse osteoblast cells: dose response (Table 8). In kind it is cell-based. The settings on record: primary mouse osteoblast cells; 63 nM, 125 nM, 250 nM, or 500 nM, 24 hours, FuGENE 6; 10 nM PTH last 2 hours. As for the experimental part: Primary mouse osteoblasts were prepared from calvaria of neonatal mice purchased from Charles River Laboratories. […] Cells were not passaged. Cells were seeded onto 6-well plates (Falcon-Primaria #353846) at a density of 50,000 cells/well for use in antisense oligonucleotide transfection.
In a further embodiment of this invention, the effect of RANKL antisense oligonucleotides and PTH treatment on the expression of RANKL was determined in primary osteoblast cells isolated from mice skull caps.
ISIS 143624 ([…], SEQ ID NO: 348) was used as a control oligonucleotide. […] All cytidine residues are 5-methylcytidines.
Primary osteoblastic cells were transfected for 24 hours with either Isis 180819 (SEQ ID NO: 185) or the control oligo ISIS 143624 (SEQ ID NO: 348) at a dose of […], 125 nM, 250 nM, or 500 nM by the methods described herein but using the transfection reagent FuGENE 6 (Roche Applied Science, Indianapolis, Ind.). During the last 2 hours of oligonucleotide transfection, the cells were treated with 10 nM PTH. The RNA was then harvested and the expression levels of […] were measured by the methods described herein. The results are expressed as percent inhibition relative to PTH treatment alone and represent the average from three experiments.

Data set [2] deals with mouse RANKL mRNA. Put plainly: Antisense inhibition of mouse RANKL mRNA levels in C2C12 cells, quantitative real-time PCR (Table 2). It counts as cell-based. Set-up: concentration or dose not given beside the values. The settings on record: averages from three experiments. The essentials:
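C2C12 cells seeded at ~10,000 cells/cm^2, treated with antisense oligonucleotides (all C as 5-methylcytidine) in triplicate and harvested 16-24 h later. Mouse RANKL mRNA quantified by real-time RT-PCR with a FAM/TAMRA probe, with mouse GAPDH (JOE/TAMRA probe) as reference.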

Data set [3] has as its system RANKL mRNA. Put plainly: RANKL mRNA % inhibition after PTH infusion in mice treated with RANKL antisense oligonucleotides for two weeks (Table 10). In kind it is in vivo, mouse. The settings on record: then 24 h PTH infusion, normalized to PTH alone. As for the experimental part:
(§1) Female Swiss-Webster (5-8 wks old) mice fed a low-calcium diet were dosed subcutaneously for two weeks with either the oligonucleotides ISIS 180819 (SEQ ID NO: 185) or 180814 (SEQ ID NO: 180) at concentrations of 5 mg/kg, 15 mg/kg, 30 mg/kg, or 40 mg/kg. A control group of mice were treated with calcitonin (400 ng) plus PTH (1 ug/100 g/6 hr), PTH alone (1 ug/100 g/6 hr) or saline. Treatment with oligonucleotides was followed with infusion of PTH by subcutaneously implanted mini-pumps at a dose of 1 ug/100 g/6 hr. After 24 hours of PTH infusion (total PTH delivery of 4 ug/100 g), the mice were sacrificed and the serum calcium concentration was measured with the Sigma Diagnostics Calcium Kit (Sigma-Aldrich). The data, summarized in Table 10 are averages from eight mice. Percent mRNA inhibition is normalized to PTH alone treatment.

A short description of data set [4]: Serum calcium concentration 24 hours after PTH infusion in mice treated with RANKL antisense oligonucleotides (Table 10). The note with it: for serum calcium: then 24 h PTH infusion. It counts as in vivo, mouse. As for the experimental part:
In accordance with the present invention, the effect of antisense oligonucleotide inhibition on PTH-induced serum calcium concentration increase was measured in mice. The serum calcium concentration in mice was measured as a function of antisense oligonucleotide dose. Calcitonin, a known bone antiresorptive agent, was used as a control for antiresorptive activity.
as §1

In data set [5] the test system is RANKL mRNA. The experiment in a line: Antisense inhibition of RANKL mRNA in proximal tibia and calvaria of mice after PTH infusion: dose response and delivery method (Table 9). It counts as in vivo, mouse. As for the experimental part: In accordance with the present invention, the levels of RANKL in the proximal tibia and calvaria in mice were measured following antisense oligonucleotide treatment and PTH infusion.
Female Swiss-Webster mice (5-8 wks old) fed a low-calcium diet were treated with ISIS 180819 (SEQ ID NO: 185) by subcutaneous injection at a dose of either 30 mg/kg or 50 mg/kg or intraperitoneal injection at a dose of either 15 mg/kg, 30 mg/kg or 50 mg/kg. After 2 weeks of daily treatment, the mice were infused with PTH at a dose of 1 ug/100 g/6 hr. After 24 hours of PTH infusion (total PTH delivery of 4 ug/100 g), the mice were sacrificed. The proximal tibia and calvaria were isolated and the level of RANKL mRNA expression was determined in each using two different primer-probe sets to confirm the results. The first primer-probe set was #1207, consisting of […] (forward primer, SEQ ID NO: 349), […] (reverse primer, SEQ ID NO: 350) and […] (probe, SEQ ID NO: 351). The second primer-probe set was #1015, consisting of […] (forward primer, SEQ ID NO: 352), […] (reverse primer, SEQ ID NO: 353) and […] (probe, SEQ ID NO: 354). The results are expressed as percent inhibition relative to PTH treatment alone and represent the average of eight mice per group.

Data set [6] deals with RANK mRNA. Put plainly: Antisense inhibition of RANK mRNA expression in proximal tibia after PTH infusion in mice: specificity and dose response (Table 15). It counts as in vivo, mouse. The settings on record: then 24 h PTH, proximal tibia. As for the experimental part:
(§2) In accordance with the present invention, the specificity of RANK inhibition by a RANK antisense oligonucleotide was compared to that of an 8-base pair mismatch oligonucleotide.
(§3) ISIS 181080 ([…], SEQ ID NO: 357) is an antisense oligonucleotide targeted to mouse RANK. ISIS 208565 ([…], SEQ ID NO: 358) is an 8-base pair mismatch oligonucleotide. […] All cytidine residues are 5-methylcytidines.
(§4) Female Swiss-Webster mice (5-8 wks old) fed a low-calcium diet were treated for two weeks with either ISIS 181080 or ISIS 208565. The dose of oligonucleotide was either 40 mg/kg, 30 mg/kg, 20 mg/kg, or 10 mg/kg. After the 2-week treatment with oligonucleotides, the mice were infused with PTH by subcutaneously implanted mini-pumps at a dose of 4 ug/100 g over 24 hours. A group of control mice were dosed with either saline, PTH alone (1 ug/100 g/6 hr) or calcitonin (400 ng) plus PTH (1 ug/100 g/6 hr). After 24 hours of PTH infusion (total PTH delivery of 4 ug/100 g), the mice were sacrificed and measurements were made of serum calcium with the Sigma Diagnostics Calcium Kit (Sigma-Aldrich) and RANK mRNA expression in proximal tibia (as described in other examples herein). The results shown in Table 15 are the average from four mice per group. Percent inhibition of RANK mRNA is normalized to PTH treatment alone. […] The data also illustrate that these effects are occurring due to an antisense mechanism.

Data set [7] can be described thus: Serum calcium concentration after PTH infusion in mice: specificity and dose response of RANK antisense oligonucleotide (Table 15). In kind it is in vivo, mouse. The note with it: then 24 h PTH. The procedure:
as §2, §3, §4

The mark [8] stands for this setting: 5 mg/kg subcutaneously two weeks.
Setting [9] is: 15 mg/kg subcutaneously two weeks.
The mark [10] stands for this setting: 30 mg/kg subcutaneously two weeks.
The mark [11] stands for this setting: 40 mg/kg subcutaneously two weeks.

Entries after “also recorded” stand apart in the source; their conditions may differ. Strand notation (5' to 3'): a small letter for the sugar, then the base; units joined by * are phosphorothioate-linked, units joined directly phosphodiester-linked; [ ] holds rarer units or linkages, { } end groups; capitals alone tell only the bases. e = 2'-O-(2-methoxyethyl) (MOE); [5mC] = 5-methylcytosine; d = 2'-deoxy (DNA)

For the substance “TGCTCAGCGAGTGTGCCAGC (sugars by position and backbone not given here; further chemistry not fully specified) [ISIS 143624, control oligonucleotide, 2′-MOE gapmer, reference compound]”, the “inhibition of PTH-induced increase in RANKL mRNA expression” value in data set [1] was “unable to reduce RANKL mRNA levels”.

Regarding “gtcttacacatgtatagaca (antisense eG*eT*e[5mC]*eT*eT*dA*d[5mC]*dA*d[5mC]*dA*dT*dG*dT*dA*dT*eA*eG*eA*e[5mC]*eA) [ISIS 180814, 2′-MOE gapmer targeted to mouse RANKL]”, the “% INHIB (inhibition of mouse RANKL mRNA levels)” value in data set [2] is “at least 40%”. Besides, the “RANKL mRNA, % inhib” value was 0 % inhib in data set [3] (setting [8]), 0 % inhib in data set [3] (setting [9]), 27 % inhib in data set [3] (setting [10]) and 6 % inhib in data set [3] (setting [11]). The “serum calcium” value is 22 mg/dL in data set [4] (setting [8]), 20 mg/dL in data set [4] (setting [9]), 18 mg/dL in data set [4] (setting [10]) and 19 mg/dL in data set [4] (setting [11]).

For the substance “tgcaggtcccagcgcaatgt (antisense eT*eG*e[5mC]*eA*eG*dG*dT*d[5mC]*d[5mC]*d[5mC]*dA*dG*d[5mC]*dG*d[5mC]*eA*eA*eT*eG*eT) [ISIS 180819, 2′-MOE gapmer targeted to mouse RANKL]”, in data set [1], the “inhibition of PTH-induced increase in RANKL mRNA expression” value was “able to inhibit the PTH-induced increase in RANKL mRNA expression”. The “% INHIB (inhibition of mouse RANKL mRNA levels)” value in data set [2] was “at least 40%”. The “RANKL mRNA, % inhib” value in data set [3] (setting [8]), in data set [3] (setting [9]) and in data set [3] (setting [10]) was 0 % inhib each time. The “% Inhibition of RANKL” value is given as 2% in data set [5] (intraperitoneal injection 15 mg/kg daily 2 weeks, proximal tibia, primer-probe set 1015); 0% in data set [5] (intraperitoneal injection 15 mg/kg daily 2 weeks, proximal tibia, primer-probe set 1207); 39% in data set [5] (intraperitoneal injection 30 mg/kg daily 2 weeks, calvaria, primer-probe set 1015); 24% in data set [5] (intraperitoneal injection 30 mg/kg daily 2 weeks, calvaria, primer-probe set 1207); 0% in data set [5] (intraperitoneal injection 30 mg/kg daily 2 weeks, proximal tibia, primer-probe set 1015); 0% in data set [5] (intraperitoneal injection 30 mg/kg daily 2 weeks, proximal tibia, primer-probe set 1207). Also, the “% Inhibition of RANKL” value is 51% in data set [5] (intraperitoneal injection 50 mg/kg daily 2 weeks, calvaria, primer-probe set 1015); 54% in data set [5] (intraperitoneal injection 50 mg/kg daily 2 weeks, calvaria, primer-probe set 1207); 21% in data set [5] (intraperitoneal injection 50 mg/kg daily 2 weeks, proximal tibia, primer-probe set 1015); 13% in data set [5] (intraperitoneal injection 50 mg/kg daily 2 weeks, proximal tibia, primer-probe set 1207); 38% in data set [5] (subcutaneous injection 30 mg/kg daily 2 weeks, calvaria, primer-probe set 1015); 38% in data set [5] (subcutaneous injection 30 mg/kg daily 2 weeks, calvaria, primer-probe set 1207). Further, the “% Inhibition of RANKL” value in data set [5] (subcutaneous injection 30 mg/kg daily 2 weeks, proximal tibia, primer-probe set 1015) worked out at 5%; in data set [5] (subcutaneous injection 30 mg/kg daily 2 weeks, proximal tibia, primer-probe set 1207), 10%; in data set [5] (subcutaneous injection 50 mg/kg daily 2 weeks, calvaria, primer-probe set 1015), 60%; in data set [5] (subcutaneous injection 50 mg/kg daily 2 weeks, calvaria, primer-probe set 1207) it was 52%; in data set [5] (subcutaneous injection 50 mg/kg daily 2 weeks, proximal tibia, primer-probe set 1015) it was 32%; in data set [5] (subcutaneous injection 50 mg/kg daily 2 weeks, proximal tibia, primer-probe set 1207) it was 36%. In addition, the “inhibition of PTH-induced increase in RANKL mRNA expression in the proximal tibia and calvaria” value in data set [5] (mice, 2 weeks daily s.c. 30 or 50 mg/kg or i.p. 15, 30 or 50 mg/kg, 24 hours PTH infusion) is recorded as “capable of inhibiting the PTH-induced increase in RANKL mRNA expression; also recorded: greater inhibition observed in the calvaria”. Also, the “serum calcium” value in data set [4] (setting [8]) was 21 mg/dL; in data set [4] (setting [9]), 17 mg/dL; in data set [4] (setting [10]), 19 mg/dL. Also, the “PTH-induced increase in serum calcium concentration” value in data set [4] (mice, s.c. two weeks 5, 15, 30 or 40 mg/kg, 24 hours PTH infusion) is recorded as “lessen the PTH-induced increase in serum calcium concentration”.

In the case of “TCCTCGAGAGGTCTCCTTGC (antisense eT*e[5mC]*e[5mC]*eT*e[5mC]*dG*dA*dG*dA*dG*dG*dT*d[5mC]*dT*d[5mC]*e[5mC]*eT*eT*eG*e[5mC]) [ISIS 208565, 8-base pair mismatch oligonucleotide, 2′-MOE gapmer, reference compound]”, the “RANK mRNA % inhibition (normalized to PTH)” value in data set [6] (10 mg/kg two weeks) is listed as 0%; in data set [6] (20 mg/kg two weeks) it was 0%; in data set [6] (30 mg/kg two weeks), 19%; in data set [6] (40 mg/kg two weeks) it was 7%. In addition, the serum calcium in data set [7] (10 mg/kg two weeks) is 21 mg/dL; in data set [7] (20 mg/kg two weeks) it was 17 mg/dL; in data set [7] (30 mg/kg two weeks), 18 mg/dL; in data set [7] (40 mg/kg two weeks) it was 16 mg/dL.

The record behind these values is patent publication US20050060764A1, “Mouse model for bone metabolism” (priority 2003, published 2005).
